Reference: ChEMBL document CHEMBL4689842, “EUbOPEN Chemogenomics Library wave 1” (2021)

How the values were obtained:
Type in all cases: toxicity, cell-based
Fibroblast = test: Incucyte cell viability with human fibroblast; conditions: 10 µM, compound concentration 10 uM
U2OS = test: Incucyte cell viability with U2OS; conditions: human, 10 µM, compound concentration 10 uM
HEK-293T = test: Incucyte cell viability with HEK293T; conditions: human, 10 µM, compound concentration 10 uM
[1] = 0 h, replicate number 1, timepoint 0 hours
[2] = 6 h, replicate number 1, timepoint 6 hours
[3] = 12 h, replicate number 1, timepoint 12 hours
[4] = 12 h, replicate number 2, timepoint 12 hours
[5] = 18 h, replicate number 1, timepoint 18 hours
[6] = 24 h, replicate number 1, timepoint 24 hours
[7] = 6 h, replicate number 2, timepoint 6 hours
[8] = 18 h, replicate number 2, timepoint 18 hours
[9] = 24 h, replicate number 2, timepoint 24 hours
[10] = 0 h, replicate number 2, timepoint 0 hours
Note: filed as whole numbers so only -1 and 0 and 1 occur.

SMILES | Growth Rate (Fibroblast; [1]) | Growth Rate (Fibroblast; [2]) | Growth Rate (Fibroblast; [3]) | Growth Rate (Fibroblast; [5]) | Growth Rate (Fibroblast; [6]) | Growth Rate (U2OS; [1]) | Growth Rate (U2OS; [3]) | Growth Rate (U2OS; [4]) | Growth Rate (U2OS; [5]) | Growth Rate (U2OS; [8]) | Growth Rate (U2OS; [6]) | Growth Rate (HEK-293T; [1]) | Growth Rate (HEK-293T; [2]) | Growth Rate (HEK-293T; [7]) | Growth Rate (HEK-293T; [3]) | Growth Rate (HEK-293T; [5]) | Growth Rate (HEK-293T; [6]) | Growth Rate (U2OS; [2]) | Growth Rate (HEK-293T; [10]) | Growth Rate (U2OS; [9]) | also measured
CN(C(=O)Cc1ccc(Cl)c(Cl)c1)C(CN1CCCC1)c1cccc(OCC(=O)O)c1.Cl (stereo not given) | 0 | 0 | 0 | 0 | 0 | 0 | 0 | 1 | 0 | 1 | 1 | 0 | 1 | 0 | 1 | 1 | 1 |  |  |  | Growth Rate (Fibroblast; [4]): 1; Growth Rate (U2OS; [7]): 1; Growth Rate (HEK-293T; [4]): 0; Growth Rate (HEK-293T; [9]): 0
Cc1cc(NC(=O)Nc2ccc(N(C)C)cc2)c2cc(F)cc(F)c2n1 | 1 | 0 | 1 | 1 | 1 |  | 0 | 1 | 0 |  | 0 | 0 | 0 |  | 0 | 0 | 0 | 0 |  |  | Growth Rate (U2OS; [10]): 0
CC(=O)[C@@]1(O)CC[C@H]2[C@@H]3C[C@H](C)C4=CC(=O)CC[C@]4(C)[C@H]3CC[C@@]21C | 1 | 0 | 1 | 1 | 1 | 1 | 1 |  | 1 |  | 1 | 1 | 0 |  | 0 | 0 | 0 | 1 | 0 |  | Growth Rate (Fibroblast; [10]): 0
CNc1nc(-c2ccc3c(N)n[nH]c3c2)cc(N2C[C@@H](C(=O)NC3CCCCC3)CC[C@H]2C)n1 | 0 | 1 | 0 | 0 | 0 |  | 0 | 1 | 0 |  | 0 | 0 |  | 0 |  |  | 1 | 1 | 1 |  | Growth Rate (HEK-293T; [4]): 0; Growth Rate (HEK-293T; [8]): 1; Growth Rate (HEK-293T; [9]): 0
Oc1ccc(-c2nc3cc(O)cc(Br)c3o2)cc1 | 0 | 0 |  | 1 | 1 |  | 1 | 0 | 1 |  | 1 | 1 | 0 | 1 | 0 | 1 | 0 |  | 0 |  | Growth Rate (U2OS; [7]): 0; Growth Rate (HEK-293T; [4]): 1
O=C(O)COc1cccc(CN(Cc2ccc(-n3cccn3)cc2)S(=O)(=O)c2cccnc2)c1 | 1 | 0 | 1 | 1 | 1 | 0 | 1 | 0 | 1 | 0 | 1 | 0 | 1 |  | 1 | 1 | 1 |  |  | 0 | Growth Rate (U2OS; [7]): 0
O=C(Nc1cccc2c(=O)cc(-c3nnn[nH]3)oc12)c1ccc(OCCCCc2ccccc2)cc1 | 0 | 0 | 0 | 0 | 0 | 1 | 0 |  | 0 |  | 1 | 1 | 0 | 1 | 0 | 0 | 0 | 0 | 0 | 0 | Growth Rate (Fibroblast; [10]): 1; Growth Rate (Fibroblast; [4]): 1; Growth Rate (Fibroblast; [8]): 1; Growth Rate (HEK-293T; [9]): 1
CCc1cc2c(c(CC)n1)CCC(=O)N2Cc1ccc(-c2ccccc2-c2nnn[nH]2)cc1.Cl | 0 | 0 | 0 | 0 | 1 | 1 | 0 |  | 0 |  | 0 | 0 | 1 | 0 | 1 | 1 | 1 | 0 |  | 1 | Growth Rate (Fibroblast; [7]): 1; Growth Rate (Fibroblast; [8]): 1; Growth Rate (U2OS; [10]): 0; Growth Rate (HEK-293T; [8]): 0
CNc1nc(Nc2cnn([C@H]3CCN(C4COC4)C[C@@H]3F)c2Cl)ncc1C(F)(F)F | 0 |  | 1 | 1 | 0 | 1 | 1 |  | 1 | 0 | 1 | 0 | 0 |  | 0 | 0 | 0 | 0 |  | 0 | Growth Rate (Fibroblast; [9]): 1
Cc1cc(C(=O)N2Cc3cnn(C)c3Nc3ccccc32)ccc1CNC(=O)N1CCC[C@H]1C(=S)N1CCCN(C)CC1 | 0 | 0 | 1 | 0 | 0 |  | 0 | 1 | 0 | 1 | 0 | 1 | 0 | 1 | 0 | 0 | 0 | 0 | 0 |  | Growth Rate (Fibroblast; [8]): 1; Growth Rate (U2OS; [10]): 0; Growth Rate (HEK-293T; [4]): 1
Cc1cc(C)c(N)c(C#Cc2cccc(F)c2)n1.Cl | 0 | 0 | 0 | 0 | 0 |  | 0 |  | 0 | 1 | 0 | 1 | 0 | 1 | 0 | 0 | 0 | 0 | 0 | 1 | Growth Rate (HEK-293T; [4]): 1; Growth Rate (HEK-293T; [8]): 1; Growth Rate (HEK-293T; [9]): 1
Clc1cc2c(NC3CCCC3)nnc(-c3ccncc3)c2cc1Cl | 0 | 0 | 1 | 1 | 1 | 1 | 1 |  | 0 | 1 | 0 | 1 |  |  | 1 | 1 | 1 | 0 | 0 | 1 | Growth Rate (U2OS; [7]): 1
COc1ccc(/C=C/CCCCOc2ccc(C(=O)c3cccc(C(=O)O)c3)cc2CCC(=O)O)cc1 | 0 | 1 | 0 | 0 | 0 | 0 |  | 0 | 1 | 0 | 1 | 1 | 1 |  | 1 | 1 | 1 |  | 0 | 0 | Growth Rate (Fibroblast; [7]): 0; Growth Rate (U2OS; [7]): 0; Growth Rate (HEK-293T; [9]): 0
Cc1cc(C)cc(C(=O)N(C)[C@H](Cc2ccc(-c3ccccc3)cc2)C(=O)N[C@@H](Cc2c[nH]c3ccccc23)C(=O)O)c1 | 0 |  |  |  |  |  | 0 | 1 | 0 | 1 | 0 | 1 | 0 |  | 0 | 0 | 0 | 0 | 0 | 1 | Growth Rate (Fibroblast; [7]): 0; Growth Rate (Fibroblast; [4]): 1; Growth Rate (Fibroblast; [8]): 1; Growth Rate (Fibroblast; [9]): 1; Growth Rate (U2OS; [10]): 0
